From patent US20160304552A1, “MODIFIED NUCLEIC ACID MOLECULES AND USES THEREOF” (MODERNA THERAPEUTICS, INC., priority 2013, published 2016)

Tests used:
human PBMC = assay: PBMC cytokine assay, interferon-alpha production (IFN-alpha multi-subtype ELISA); format: cell-based
Method: 50 mL of human blood from three donors was received from Research Blood Components (Brighton, Mass.) in sodium heparin tubes. […] The tubes were centrifuged at 2000 rpm for 30 minutes with low acceleration and braking (Thermo, Waltham, Mass., 75004506). The tubes were removed and the buffy coat PBMC layers were gently transferred to a fresh 50 mL conical and washed with DPBS. The tubes were centrifuged at 1450 rpm for 10 minutes. The supernatant was aspirated and the PBMC pellets were resuspended and washed in 50 mL of DPBS. The tubes were centrifuged at 1450 rpm for 10 minutes. […] The cell suspensions were adjusted to a concentration of 3.0×10^6 cells/mL live cells. […] Within 30 minutes, transfection mixtures were added to each well at a volume of 50 μL per well. […] The transfection mixtures were then transferred to each of the human PBMC plates at 50 μL per well (6 wells per mRNA sample). The plates were then incubated at 37° C. […] In order to harvest the supernatant, plates were centrifuged at 1450 rpm for 5 min in a swinging plate rotor. The supernatant of 6 wells transfected with the same mRNA was carefully harvested and pooled in a single well of a fresh 96-well plate. Supernatants were either frozen or used fresh until ELISA analysis was done. The ability of unmodified and modified mRNA to trigger innate immune recognition as measured by interferon-alpha production.

[1] = tested on: Rabbit Reticulocyte Lysate; assay: In vitro translation screen, firefly Luciferase modRNA (luciferase assay, relative light units); format: biochemical; conditions: Table 20; 250 ng modRNA, 45 min, 30° C.
Method: (§1) The in vitro translation assay was done with the Rabbit Reticulocyte Lysate (nuclease-treated) kit (Promega, Madison, Wis.; Cat. #L4960) according to the manufacturer's instructions. The reaction buffer was a mixture of equal amounts of the amino acid stock solutions devoid of Leucine or Methionine provided in the kit.
(§2) The modRNAs of firefly Luciferase, human GCSF and human EPO, harboring chemical modifications on either the bases or the ribose units, were diluted in sterile nuclease-free water to a final concentration of 250 ng in 2.5 ul (Stock 100 ng/μl). The modRNA (250 ng) was added to the mixture of freshly prepared Rabbit Reticulocyte Lysate and reaction buffer.
After 45 min incubation, the reaction was stopped by placing the plate on ice. Aliquots of the in vitro translation reaction containing luciferase modRNA were transferred to white opaque polystyrene 96-well plates (Corning, Manassas, Va.; Cat. # CLS3912) and combined with 100 ul complete luciferase assay solution (Promega, Madison, Wis.). The volumes of the in vitro translation reactions were adjusted or diluted until no more than 2 million relative light units per well were detected for the strongest signal producing samples. […] The plate reader was a BioTek Synergy H1 (BioTek, Winooski, Vt.).

HeLa cells [2] = assay: Transfection in HeLa cells, human EPO modRNA (EPO ELISA of supernatant); format: cell-based; conditions: Table 22, 18 h to 22 h
Method: (§3) The day before transfection, 20.000 HeLa cells (ATCC no. CCL-2; Manassas, Va.) were harvested by treatment with Trypsin-EDTA solution (LifeTechnologies, Grand Island, N.Y.) and seeded in a total volume of 100 ul EMEM medium (supplemented with 10% FCS and 1× Glutamax) per well in a 96-well cell culture plate (Corning, Manassas, Va.). The cells were grown at 37° C. in 5% CO2 atmosphere overnight. Next day, 83 ng of Luciferase modRNA or 250 ng of human GCSF modRNA, harboring chemical modifications on the bases or the ribose units, were diluted in 10 ul final volume of OPTI-MEM (LifeTechnologies, Grand Island, N.Y.). Lipofectamine 2000 (LifeTechnologies, Grand Island, N.Y.) was used as transfection reagent and 0.2 μl were diluted in 10 ul final volume of OPTI-MEM. After 5 min incubation at room temperature, both solutions were combined and incubated additional 15 min at room temperature. Then the 20 μl were added to the 100 ul cell culture medium containing the HeLa cells. The plates were then incubated as described before.
(§4) After 18 h to 22 h incubation, cell culture supernatants of cells expressing human GCSF or human EPO were collected and centrifuged at 10.000 rcf for 2 min. The cleared supernatants were transferred and analyzed with a human GCSF-specific or EPO ELISA kit (both from R&D Systems, Minneapolis, Minn.; Cat. #s SCS50, DEP00, respectively) according to the manufacturer instructions. All samples were diluted until the determined values were within the linear range of the human GCSF or EPO ELISA standard curve.

T7 RNA polymerase = T7 RNA polymerase (Escherichia phage T7, UniProt P00573); assay: In vitro transcription yields of modified mRNA; format: biochemical; conditions: for EPO In Vitro Transcription yield: EPO mRNA made with the modified NTP(s); for GCSF In Vitro Transcription yield: GCSF mRNA made with the modified NTP(s); for Luc In Vitro Transcription yield: Luciferase mRNA made with the modified NTP(s)
Chain of T7 RNA polymerase (P00573 whole entry): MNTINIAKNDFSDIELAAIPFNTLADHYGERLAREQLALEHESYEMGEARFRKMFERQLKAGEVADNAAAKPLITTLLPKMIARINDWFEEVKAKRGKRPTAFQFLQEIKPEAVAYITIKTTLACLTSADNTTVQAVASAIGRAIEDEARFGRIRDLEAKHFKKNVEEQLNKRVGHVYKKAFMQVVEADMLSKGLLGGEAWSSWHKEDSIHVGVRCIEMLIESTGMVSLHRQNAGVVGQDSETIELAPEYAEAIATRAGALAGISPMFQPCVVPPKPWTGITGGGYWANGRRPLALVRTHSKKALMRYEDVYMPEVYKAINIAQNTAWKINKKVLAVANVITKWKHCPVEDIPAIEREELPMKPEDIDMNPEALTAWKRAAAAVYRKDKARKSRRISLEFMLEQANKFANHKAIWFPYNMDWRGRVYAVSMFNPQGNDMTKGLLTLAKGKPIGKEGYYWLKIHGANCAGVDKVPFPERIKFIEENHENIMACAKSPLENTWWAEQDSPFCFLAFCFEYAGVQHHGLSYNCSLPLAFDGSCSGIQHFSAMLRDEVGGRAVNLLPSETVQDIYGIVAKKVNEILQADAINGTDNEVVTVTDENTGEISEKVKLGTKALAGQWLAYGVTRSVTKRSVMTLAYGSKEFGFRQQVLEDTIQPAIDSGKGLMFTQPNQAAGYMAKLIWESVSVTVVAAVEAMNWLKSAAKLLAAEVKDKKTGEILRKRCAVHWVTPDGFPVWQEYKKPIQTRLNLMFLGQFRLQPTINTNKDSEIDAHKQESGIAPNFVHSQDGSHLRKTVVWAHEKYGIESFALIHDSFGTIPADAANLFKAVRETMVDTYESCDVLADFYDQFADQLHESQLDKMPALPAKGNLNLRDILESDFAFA

[3] = tested on: Rabbit Reticulocyte Lysate; assay: In vitro translation screen, human EPO modRNA (EPO ELISA); format: biochemical; conditions: Table 20; 250 ng modRNA, 45 min, 30° C.
Method: as §1, §2
(§5) Aliquots of the in vitro translation reaction containing human GCSF modRNA or human EPO mRNA were transferred and analyzed with a human GCSF-specific or EPO ELISA kit (both from R&D Systems, Minneapolis, Minn.; Cat. #s SCS50, DEP00 respectively) according to the manufacturer instructions. All samples were diluted until the determined values were within the linear range of the human GCSF or EPO ELISA standard curve.

[4] = tested on: Rabbit Reticulocyte Lysate; assay: In vitro translation screen, human GCSF modRNA (GCSF ELISA); format: biochemical; conditions: Table 20; 250 ng modRNA, 45 min, 30° C.
Method: as §1, §2, §5

HeLa cells [5] = assay: Transfection in HeLa cells, Luciferase modRNA (luciferase assay, relative light units); format: cell-based, human; conditions: Table 22, 83 ng modRNA, Lipofectamine 2000, 18 h to 22 h
Method: as §3
After 18 h to 22 h incubation, cells expressing luciferase were lysed with 100 μl Passive Lysis Buffer (Promega, Madison, Wis.) according to manufacturer instructions. Aliquots of the lysates were transferred to white opaque polystyrene 96-well plates (Corning, Manassas, Va.) and combined with 100 ul complete luciferase assay solution (Promega, Madison, Wis.). The lysate volumes were adjusted or diluted until no more than 2 mio relative light units per well were detected for the strongest signal producing samples. […] The plate reader was a BioTek Synergy H1 (BioTek, Winooski, Vt.).

HeLa cells [6] = assay: Transfection in HeLa cells, human GCSF modRNA (GCSF ELISA of supernatant); format: cell-based; conditions: Table 22, 250 ng modRNA, 18 h to 22 h
Method: as §3, §4

Row | Compound | interferon-alpha concentration in PBMC supernatant (human PBMC; Luc mRNA, 1st value in cell) [pg/mL] | interferon-alpha concentration in PBMC supernatant (human PBMC; Luc mRNA, 2nd value in cell) [pg/mL] | interferon-alpha concentration in PBMC supernatant (human PBMC; Luc mRNA, 3rd value in cell) [pg/mL] | interferon-alpha concentration in PBMC supernatant (human PBMC; hEPO mRNA, 1st value in cell) [pg/mL] | interferon-alpha concentration in PBMC supernatant (human PBMC; hEPO mRNA, 2nd value in cell) [pg/mL] | interferon-alpha concentration in PBMC supernatant (human PBMC; hEPO mRNA, 3rd value in cell) [pg/mL] | interferon-alpha concentration in PBMC supernatant (human PBMC; hGCSF mRNA, 1st value in cell) [pg/mL] | interferon-alpha concentration in PBMC supernatant (human PBMC; hGCSF mRNA, 2nd value in cell) [pg/mL] | interferon-alpha concentration in PBMC supernatant (human PBMC; hGCSF mRNA, 3rd value in cell) [pg/mL] | Luc Expression (RLUs) [1] [RLUs] | Epo Expression (HeLa cells [2]) [pg/mL] | EPO In Vitro Transcription yield (T7 RNA polymerase) [mg] | GCSF In Vitro Transcription yield (T7 RNA polymerase) [mg] | Luc In Vitro Transcription yield (T7 RNA polymerase) [mg] | Epo Expression [3] [pg/mL] | GCSF Expression [4] [pg/mL] | Luc Expression (RLUs) (HeLa cells [5]) | GCSF Expression (HeLa cells [6]) [pg/mL] | Luc (3 Donor samples) (human PBMC; Luc mRNA, 1st value in cell) [pg/mL] | Luc (3 Donor samples) (human PBMC; Luc mRNA, 2nd value in cell) [pg/mL] | other results
1 | O=c1[nH]c(=S)[nH]cc1[C@@H]1O[C@H](COP(=O)(O)OP(=O)(O)OP(=O)(O)O)C(O)C1O (stereo in doubt) [00901015006 (193), 2-Thio-pseudo-UTP] | 530 | 1180 | 1400 | -210 | 675 | 362.5 | 358.33 | 166.66 | 490 | 2198 | 380600 | 1.081 | 0.5207 | 0.6123 | 12310 | 5988 | 1999 | 239300 | – | – | –
2 | O=c1[nH]cc([C@@H]2O[C@H](COP(O)(=S)OP(=O)(O)OP(=O)(O)O)C(O)C2O)c(=O)[nH]1 (stereo in doubt) [00902015001 (194), PseudoU-alpha-thio-TP] | – | – | – | – | – | – | – | – | – | 5221 | 302800 | 0.8632 | 0.5522 | 0.6479 | 2669 | 7763 | 2015 | 320000 | 20 | 170 | Luc (3 Donor samples) (human PBMC; Luc mRNA, 3rd value in cell): -90 pg/mL; hEPO (3 Donor samples) (human PBMC; hEPO mRNA, 1st value in cell): -190 pg/mL; hEPO (3 Donor samples) (human PBMC; hEPO mRNA, 2nd value in cell): 75 pg/mL; hEPO (3 Donor samples) (human PBMC; hEPO mRNA, 3rd value in cell): 400 pg/mL; hGCSF (3 Donor samples) (human PBMC; hGCSF mRNA, 1st value in cell): 50 pg/mL; hGCSF (3 Donor samples) (human PBMC; hGCSF mRNA, 2nd value in cell): 508.33 pg/mL; hGCSF (3 Donor samples) (human PBMC; hGCSF mRNA, 3rd value in cell): 640 pg/mL
3 | Cn1cc([C@@H]2O[C@H](COP(O)(=S)OP(=O)(O)OP(=O)(O)O)C(O)C2O)c(=O)[nH]c1=O (stereo in doubt) [00902015002 (195), 1-Methyl-pseudo-U-alpha-thio-TP] | – | – | – | – | – | – | – | – | – | 1201 | 348600 | 0.7679 | 0.6582 | 0.6011 | 1694 | 4244 | 4900 | 372100 | 180 | 500 | Luc (3 Donor samples) (human PBMC; Luc mRNA, 3rd value in cell): 180 pg/mL; hEPO (3 Donor samples) (human PBMC; hEPO mRNA, 1st value in cell): -290 pg/mL; hEPO (3 Donor samples) (human PBMC; hEPO mRNA, 2nd value in cell): 512.5 pg/mL; hEPO (3 Donor samples) (human PBMC; hEPO mRNA, 3rd value in cell): 475 pg/mL; hGCSF (3 Donor samples) (human PBMC; hGCSF mRNA, 1st value in cell): 425 pg/mL; hGCSF (3 Donor samples) (human PBMC; hGCSF mRNA, 2nd value in cell): 916.66 pg/mL; hGCSF (3 Donor samples) (human PBMC; hGCSF mRNA, 3rd value in cell): 1250 pg/mL
4 | Nc1nc(=O)n([C@@H]2O[C@H](COP(=O)(O)OP(=O)(O)OP(=O)(O)O)C(O)C2O)cc1Br (stereo in doubt) [03601014008 (379), 5-Bromo-CTP] | 5470 | 1080 | 5420 | 2300 | 487.5 | 500 | 2808.33 | 2266.67 | 1650 | 194900 | 3263000 | 0.3454 | 0.3685 | 0.5161 | 8581 | 13510 | 125700 | 1003000 | – | – | –
